Reference: PMC4490784, “Compensatory induction of MYC expression by sustained CDK9 inhibition via a BRD4-dependent mechanism” (eLife, 2015)

What was measured:
Assay in all cases: KINOMEscan binding assay
[1] = target: T1, ERN1 (Homo sapiens, UniProt O75460); details: read-out: % Retention on Solid Support
T1 construct: purchased DiscoveRx KINOMEscan
Summary of the method: (§1)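 Over 400 kinases were screened. i-CDK9 was applied at 1 and 10 µM. Occupancy was read by competition with an active site-directed ligand.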

[2] = target: T2, SRPK1 (Homo sapiens, UniProt Q96SB4); details: read-out: % Retention on Solid Support
T2 construct: purchased DiscoveRx KINOMEscan
Summary of the method: as §1

[3] = target: T3, ABL1(M351T)-phosphorylated (Homo sapiens, UniProt P00519, M351T); details: 1 µM i-CDK9; read-out: % Retention on Solid Support
T3 construct: purchased DiscoveRx KINOMEscan
Summary of the method: as §1

[4] = target: T4, ABL1(E255K)-phosphorylated (Homo sapiens, UniProt P00519, E255K); details: 1 µM i-CDK9; read-out: % Retention on Solid Support
T4 construct: purchased DiscoveRx KINOMEscan
Summary of the method: as §1

[5] = target: T5, TYK2(JH2domain-pseudokinase) (Homo sapiens, UniProt P29597)
T5 construct: TYK2(JH2domain-pseudokinase); purchased DiscoveRx KINOMEscan
T5 sequence (P29597 556-888 limits assumed): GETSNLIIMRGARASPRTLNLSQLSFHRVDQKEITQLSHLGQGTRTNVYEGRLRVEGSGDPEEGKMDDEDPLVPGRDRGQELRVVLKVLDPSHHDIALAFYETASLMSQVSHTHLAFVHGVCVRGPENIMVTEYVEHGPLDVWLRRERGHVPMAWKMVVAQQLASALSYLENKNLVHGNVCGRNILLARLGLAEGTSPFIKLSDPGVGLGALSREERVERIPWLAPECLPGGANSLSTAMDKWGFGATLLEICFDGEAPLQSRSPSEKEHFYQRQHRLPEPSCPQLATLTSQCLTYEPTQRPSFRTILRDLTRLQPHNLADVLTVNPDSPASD
Summary of the method: as §1

[6] = target: T6, KIT(V559D,T670I) (Homo sapiens, UniProt P10721, T670I/V559D); details: read-out: % Retention on Solid Support
T6 construct: purchased DiscoveRx KINOMEscan
Summary of the method: as §1

[7] = target: T7, ERK3 (Homo sapiens, UniProt Q16659); details: read-out: % Retention on Solid Support
T7 construct: purchased DiscoveRx KINOMEscan
Summary of the method: as §1

[8] = target: T8, ABL1(F317I)-phosphorylated (Homo sapiens, UniProt P00519, F317I); details: 1 µM i-CDK9; read-out: % Retention on Solid Support
T8 construct: purchased DiscoveRx KINOMEscan
Summary of the method: as §1

[9] = target: T9, ADCK4 (Homo sapiens, UniProt Q96D53); details: read-out: % Retention on Solid Support
T9 construct: purchased DiscoveRx KINOMEscan
Summary of the method: as §1

[10] = target: T10, TNIK (Homo sapiens, UniProt Q9UKE5); details: read-out: % Retention on Solid Support
T10 construct: purchased DiscoveRx KINOMEscan
Summary of the method: as §1

[11] = target: T11, DAPK1 (Homo sapiens, UniProt P53355); details: read-out: % Retention on Solid Support
T11 construct: purchased DiscoveRx KINOMEscan
Summary of the method: as §1

[12] = target: T12, TAOK3 (Homo sapiens, UniProt Q9H2K8); details: read-out: % Retention on Solid Support
T12 construct: purchased DiscoveRx KINOMEscan
T12 sequence (Q9H2K8 1-898): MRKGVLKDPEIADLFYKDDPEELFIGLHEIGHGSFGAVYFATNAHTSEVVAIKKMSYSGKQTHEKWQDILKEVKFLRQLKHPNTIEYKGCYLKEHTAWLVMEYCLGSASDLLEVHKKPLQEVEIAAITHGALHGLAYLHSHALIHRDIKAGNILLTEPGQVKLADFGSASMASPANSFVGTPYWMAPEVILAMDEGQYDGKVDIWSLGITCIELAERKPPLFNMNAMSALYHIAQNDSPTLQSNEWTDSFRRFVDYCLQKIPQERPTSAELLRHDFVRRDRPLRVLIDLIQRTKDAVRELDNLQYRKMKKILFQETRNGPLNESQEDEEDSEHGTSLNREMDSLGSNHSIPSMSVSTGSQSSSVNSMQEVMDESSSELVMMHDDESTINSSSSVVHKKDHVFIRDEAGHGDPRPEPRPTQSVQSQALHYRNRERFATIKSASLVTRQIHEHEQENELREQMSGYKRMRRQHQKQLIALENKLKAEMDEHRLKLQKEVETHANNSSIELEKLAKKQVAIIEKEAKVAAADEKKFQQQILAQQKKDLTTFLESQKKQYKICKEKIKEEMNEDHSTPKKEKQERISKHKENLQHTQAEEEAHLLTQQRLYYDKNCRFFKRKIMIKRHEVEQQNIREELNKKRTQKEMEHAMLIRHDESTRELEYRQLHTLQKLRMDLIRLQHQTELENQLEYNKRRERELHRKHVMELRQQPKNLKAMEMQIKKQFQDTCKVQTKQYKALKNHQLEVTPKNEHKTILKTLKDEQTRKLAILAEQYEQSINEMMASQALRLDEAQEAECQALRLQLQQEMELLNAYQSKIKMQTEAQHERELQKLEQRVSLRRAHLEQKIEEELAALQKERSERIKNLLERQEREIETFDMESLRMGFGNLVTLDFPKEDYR
Summary of the method: as §1

[13] = target: T13, LATS2 (Homo sapiens, UniProt Q9NRM7)
T13 construct: purchased DiscoveRx KINOMEscan
Summary of the method: as §1

[14] = target: T14, ROCK2 (Homo sapiens, UniProt O75116); details: read-out: % Retention on Solid Support
T14 construct: purchased DiscoveRx KINOMEscan
T14 sequence (O75116 whole entry): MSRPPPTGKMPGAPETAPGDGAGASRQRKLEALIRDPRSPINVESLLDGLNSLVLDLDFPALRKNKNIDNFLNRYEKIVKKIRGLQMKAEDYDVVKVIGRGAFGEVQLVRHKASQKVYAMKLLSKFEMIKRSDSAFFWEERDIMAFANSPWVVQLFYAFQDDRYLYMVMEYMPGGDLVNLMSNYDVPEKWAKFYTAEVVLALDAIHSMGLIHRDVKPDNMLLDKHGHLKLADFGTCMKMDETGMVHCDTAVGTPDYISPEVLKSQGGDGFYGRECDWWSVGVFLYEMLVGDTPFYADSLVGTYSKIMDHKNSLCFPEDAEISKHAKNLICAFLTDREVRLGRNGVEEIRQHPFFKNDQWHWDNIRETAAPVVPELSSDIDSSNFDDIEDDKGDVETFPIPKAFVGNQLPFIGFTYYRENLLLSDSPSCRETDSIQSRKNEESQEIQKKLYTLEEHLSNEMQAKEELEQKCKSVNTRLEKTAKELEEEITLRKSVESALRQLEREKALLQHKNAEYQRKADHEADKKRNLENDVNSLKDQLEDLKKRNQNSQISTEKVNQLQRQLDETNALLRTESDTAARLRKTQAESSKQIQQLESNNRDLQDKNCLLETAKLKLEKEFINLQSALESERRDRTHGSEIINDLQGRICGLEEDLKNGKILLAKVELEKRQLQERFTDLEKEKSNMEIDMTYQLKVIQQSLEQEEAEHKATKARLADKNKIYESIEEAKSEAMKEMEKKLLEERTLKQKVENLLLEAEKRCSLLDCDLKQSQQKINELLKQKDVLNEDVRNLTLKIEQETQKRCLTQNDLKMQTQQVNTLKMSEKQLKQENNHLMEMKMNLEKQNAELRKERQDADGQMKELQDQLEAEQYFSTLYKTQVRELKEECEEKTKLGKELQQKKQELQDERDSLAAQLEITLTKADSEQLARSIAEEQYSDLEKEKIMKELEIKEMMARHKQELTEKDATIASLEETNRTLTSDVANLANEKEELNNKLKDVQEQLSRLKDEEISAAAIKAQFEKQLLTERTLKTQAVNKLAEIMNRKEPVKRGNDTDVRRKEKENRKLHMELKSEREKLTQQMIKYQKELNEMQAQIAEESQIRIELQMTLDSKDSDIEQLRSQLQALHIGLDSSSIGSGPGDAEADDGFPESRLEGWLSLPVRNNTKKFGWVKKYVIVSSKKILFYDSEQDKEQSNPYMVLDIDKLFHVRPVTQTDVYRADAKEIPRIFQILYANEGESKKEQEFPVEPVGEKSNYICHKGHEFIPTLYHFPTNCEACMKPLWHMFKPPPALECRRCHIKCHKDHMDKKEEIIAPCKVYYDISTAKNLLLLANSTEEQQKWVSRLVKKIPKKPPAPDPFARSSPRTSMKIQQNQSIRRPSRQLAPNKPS
Summary of the method: as §1

[15] = target: T15, MEK2 (Homo sapiens, UniProt P36507); details: read-out: % Retention on Solid Support
T15 construct: purchased DiscoveRx KINOMEscan
T15 sequence (P36507 whole entry): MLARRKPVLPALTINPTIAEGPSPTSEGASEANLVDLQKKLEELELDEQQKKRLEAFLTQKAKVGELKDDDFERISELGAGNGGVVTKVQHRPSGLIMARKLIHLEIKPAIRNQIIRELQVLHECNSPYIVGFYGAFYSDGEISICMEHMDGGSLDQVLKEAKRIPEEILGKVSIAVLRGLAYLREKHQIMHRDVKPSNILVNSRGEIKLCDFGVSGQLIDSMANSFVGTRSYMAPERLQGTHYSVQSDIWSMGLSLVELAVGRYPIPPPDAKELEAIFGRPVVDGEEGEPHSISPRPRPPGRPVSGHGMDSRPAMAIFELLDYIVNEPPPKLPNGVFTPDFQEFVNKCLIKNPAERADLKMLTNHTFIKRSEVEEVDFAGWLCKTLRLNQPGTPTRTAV
Summary of the method: as §1

[16] = target: T16, KIT(V559D,V654A) (Homo sapiens, UniProt P10721, V559D/V654A); details: read-out: % Retention on Solid Support
T16 construct: purchased DiscoveRx KINOMEscan
Summary of the method: as §1

[17] = target: T17, TLK1 (Homo sapiens, UniProt Q9UKI8); details: read-out: % Retention on Solid Support
T17 construct: purchased DiscoveRx KINOMEscan
Summary of the method: as §1

[18] = target: T18, BRK (Homo sapiens, UniProt Q13882); details: read-out: % Retention on Solid Support
T18 construct: purchased DiscoveRx KINOMEscan
T18 sequence (Q13882 whole entry): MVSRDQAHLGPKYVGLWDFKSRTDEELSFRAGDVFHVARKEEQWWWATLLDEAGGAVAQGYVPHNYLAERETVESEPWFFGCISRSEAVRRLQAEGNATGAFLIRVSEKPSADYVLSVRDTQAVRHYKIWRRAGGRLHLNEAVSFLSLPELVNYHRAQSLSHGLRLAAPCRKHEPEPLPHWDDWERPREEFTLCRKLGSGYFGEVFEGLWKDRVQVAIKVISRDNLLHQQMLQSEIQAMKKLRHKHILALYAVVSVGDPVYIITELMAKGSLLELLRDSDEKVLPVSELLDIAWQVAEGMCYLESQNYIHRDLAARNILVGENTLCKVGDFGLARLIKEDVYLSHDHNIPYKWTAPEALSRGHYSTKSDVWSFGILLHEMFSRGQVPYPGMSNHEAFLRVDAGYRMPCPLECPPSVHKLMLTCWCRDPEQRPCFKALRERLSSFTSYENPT
Summary of the method: as §1

[19] = target: T19, TAOK2 (Homo sapiens, UniProt Q9UL54); details: read-out: % Retention on Solid Support
T19 construct: purchased DiscoveRx KINOMEscan
T19 sequence (Q9UL54 whole entry): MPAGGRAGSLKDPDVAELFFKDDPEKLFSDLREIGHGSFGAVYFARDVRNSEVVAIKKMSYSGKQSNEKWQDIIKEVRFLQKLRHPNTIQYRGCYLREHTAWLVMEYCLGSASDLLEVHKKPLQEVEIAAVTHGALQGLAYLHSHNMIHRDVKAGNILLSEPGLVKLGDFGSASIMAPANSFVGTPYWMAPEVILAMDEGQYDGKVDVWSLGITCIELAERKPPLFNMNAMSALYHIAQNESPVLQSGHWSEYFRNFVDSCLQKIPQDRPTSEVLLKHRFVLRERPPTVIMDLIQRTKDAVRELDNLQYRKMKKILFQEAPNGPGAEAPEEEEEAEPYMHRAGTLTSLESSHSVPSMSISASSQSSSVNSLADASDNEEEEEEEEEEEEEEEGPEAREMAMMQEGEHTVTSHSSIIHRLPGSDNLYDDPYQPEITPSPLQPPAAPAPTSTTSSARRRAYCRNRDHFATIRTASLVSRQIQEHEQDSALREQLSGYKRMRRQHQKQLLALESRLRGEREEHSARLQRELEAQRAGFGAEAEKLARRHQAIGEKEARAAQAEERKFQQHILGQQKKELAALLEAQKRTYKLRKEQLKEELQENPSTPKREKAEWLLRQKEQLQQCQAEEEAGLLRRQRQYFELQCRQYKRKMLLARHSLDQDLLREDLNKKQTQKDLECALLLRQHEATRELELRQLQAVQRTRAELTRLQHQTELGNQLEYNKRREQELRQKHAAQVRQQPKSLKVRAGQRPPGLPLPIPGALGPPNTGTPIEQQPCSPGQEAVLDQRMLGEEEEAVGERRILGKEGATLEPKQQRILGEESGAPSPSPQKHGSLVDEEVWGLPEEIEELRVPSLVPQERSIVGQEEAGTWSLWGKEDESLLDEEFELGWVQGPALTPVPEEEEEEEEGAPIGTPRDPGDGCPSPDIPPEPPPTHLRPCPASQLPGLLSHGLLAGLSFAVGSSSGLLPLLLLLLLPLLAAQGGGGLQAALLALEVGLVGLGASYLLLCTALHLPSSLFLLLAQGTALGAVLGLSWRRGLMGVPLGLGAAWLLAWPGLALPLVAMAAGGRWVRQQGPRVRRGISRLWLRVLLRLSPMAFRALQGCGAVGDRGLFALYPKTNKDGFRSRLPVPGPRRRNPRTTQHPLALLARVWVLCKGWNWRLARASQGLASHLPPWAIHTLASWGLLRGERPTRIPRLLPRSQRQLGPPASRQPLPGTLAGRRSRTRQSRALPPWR
Summary of the method: as §1

T1 sequence (O75460 19-977): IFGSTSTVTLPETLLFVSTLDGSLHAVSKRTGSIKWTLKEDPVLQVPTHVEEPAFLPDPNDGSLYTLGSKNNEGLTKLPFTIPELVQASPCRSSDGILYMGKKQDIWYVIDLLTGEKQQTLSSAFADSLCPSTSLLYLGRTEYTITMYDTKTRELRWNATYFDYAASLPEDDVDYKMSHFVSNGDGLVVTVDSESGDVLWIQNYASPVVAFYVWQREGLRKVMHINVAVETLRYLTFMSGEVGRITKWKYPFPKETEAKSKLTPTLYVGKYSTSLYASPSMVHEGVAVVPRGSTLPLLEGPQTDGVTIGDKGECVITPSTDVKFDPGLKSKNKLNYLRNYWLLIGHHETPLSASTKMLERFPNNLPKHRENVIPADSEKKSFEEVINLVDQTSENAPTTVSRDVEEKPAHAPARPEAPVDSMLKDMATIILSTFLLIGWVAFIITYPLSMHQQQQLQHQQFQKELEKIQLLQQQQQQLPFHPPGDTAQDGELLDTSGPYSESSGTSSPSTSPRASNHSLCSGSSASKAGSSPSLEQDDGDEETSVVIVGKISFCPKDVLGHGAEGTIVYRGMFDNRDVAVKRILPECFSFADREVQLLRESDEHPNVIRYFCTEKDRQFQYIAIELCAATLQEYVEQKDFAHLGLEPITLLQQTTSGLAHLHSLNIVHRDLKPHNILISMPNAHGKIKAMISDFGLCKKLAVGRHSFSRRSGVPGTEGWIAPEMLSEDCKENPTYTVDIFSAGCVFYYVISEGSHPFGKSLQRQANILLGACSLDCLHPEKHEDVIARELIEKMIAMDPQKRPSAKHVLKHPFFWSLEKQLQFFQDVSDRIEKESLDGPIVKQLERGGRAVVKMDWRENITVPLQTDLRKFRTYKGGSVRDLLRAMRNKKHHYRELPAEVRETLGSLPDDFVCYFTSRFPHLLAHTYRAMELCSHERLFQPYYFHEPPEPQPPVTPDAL

With `N[C@H]1CC[C@H](Nc2cc(-c3cccc(NCc4cccc(F)c4)n3)c(Cl)cn2)CC1` [i-CDK9, N2′-(trans-4-aminocyclohexyl)-5′-chloro-N6-(3-fluorobenzyl)-2,4′-bipyridine-2′,6-diamine] as the compound, how does the remaining binding at 1 µM ([1]; 1 µM i-CDK9) read?
Its remaining binding at 1 µM is 100%.

What about the remaining binding at 10 µM ([1]; 10 µM i-CDK9) of the same compound?
Its remaining binding at 10 µM is 62%.

What about the remaining binding at 1 µM ([2]; 1 µM i-CDK9) of the same compound?
Its remaining binding at 1 µM is 100%.

What about the remaining binding at 10 µM ([2]; 10 µM i-CDK9) of the same compound?
The remaining binding at 10 µM was 70%.

What about the remaining binding at 1 µM [3] of the same compound?
The remaining binding at 1 µM was 96%.

What about the remaining binding at 1 µM [4] of the same compound?
Its remaining binding at 1 µM is 74%.

And the “% Retention on Solid Support” value ([5]; 1 µM i-CDK9)?
Its value is 100%.

What about the “% Retention on Solid Support” value ([5]; 10 µM i-CDK9) of the same compound?
The value was 86%.

And the remaining binding at 1 µM ([6]; 1 µM i-CDK9)?
Its remaining binding at 1 µM is 95%.

What about the remaining binding at 10 µM ([6]; 10 µM i-CDK9) of the same compound?
Its remaining binding at 10 µM is 100%.

What about the remaining binding at 1 µM ([7]; 1 µM i-CDK9) of the same compound?
The remaining binding at 1 µM was 94%.

And the remaining binding at 10 µM ([7]; 10 µM i-CDK9)?
The remaining binding at 10 µM was 94%.

What about the remaining binding at 1 µM [8] of the same compound?
Its remaining binding at 1 µM is 100%.

What about the remaining binding at 1 µM ([9]; 1 µM i-CDK9) of the same compound?
Its remaining binding at 1 µM is 99%.

What about the remaining binding at 10 µM ([9]; 10 µM i-CDK9) of the same compound?
The remaining binding at 10 µM was 48%.

And the remaining binding at 1 µM ([10]; 1 µM i-CDK9)?
The remaining binding at 1 µM was 72%.

And the remaining binding at 10 µM ([10]; 10 µM i-CDK9)?
Its remaining binding at 10 µM is 36%.

What about the remaining binding at 1 µM ([11]; 1 µM i-CDK9) of the same compound?
Its remaining binding at 1 µM is 64%.

What about the remaining binding at 10 µM ([11]; 10 µM i-CDK9) of the same compound?
The remaining binding at 10 µM was 100%.

What about the remaining binding at 1 µM ([12]; 1 µM i-CDK9) of the same compound?
Its remaining binding at 1 µM is 12%.

And the remaining binding at 10 µM ([12]; 10 µM i-CDK9)?
The remaining binding at 10 µM was 1.2%.

And the “% Retention on Solid Support” value ([13]; 1 µM i-CDK9)?
The value was 100%.

And the “% Retention on Solid Support” value ([13]; 10 µM i-CDK9)?
Its value is 100%.

And the remaining binding at 1 µM ([14]; 1 µM i-CDK9)?
Its remaining binding at 1 µM is 100%.

And the remaining binding at 10 µM ([14]; 10 µM i-CDK9)?
Its remaining binding at 10 µM is 90%.

What about the remaining binding at 1 µM ([15]; 1 µM i-CDK9) of the same compound?
Its remaining binding at 1 µM is 96%.

And the remaining binding at 10 µM ([15]; 10 µM i-CDK9)?
Its remaining binding at 10 µM is 100%.

And the remaining binding at 1 µM ([16]; 1 µM i-CDK9)?
Its remaining binding at 1 µM is 100%.

What about the remaining binding at 10 µM ([16]; 10 µM i-CDK9) of the same compound?
Its remaining binding at 10 µM is 75%.

What about the remaining binding at 1 µM ([17]; 1 µM i-CDK9) of the same compound?
Its remaining binding at 1 µM is 62%.

And the remaining binding at 10 µM ([17]; 10 µM i-CDK9)?
The remaining binding at 10 µM was 95%.

What about the remaining binding at 1 µM ([18]; 1 µM i-CDK9) of the same compound?
The remaining binding at 1 µM was 70%.

What about the remaining binding at 10 µM ([18]; 10 µM i-CDK9) of the same compound?
Its remaining binding at 10 µM is 100%.

What about the remaining binding at 1 µM ([19]; 1 µM i-CDK9) of the same compound?
Its remaining binding at 1 µM is 82%.

And the remaining binding at 10 µM ([19]; 10 µM i-CDK9)?
Its remaining binding at 10 µM is 5.8%.
